Assay results from ChEMBL document CHEMBL1145245, “Uracils as potent antagonists of the human gonadotropin-releasing hormone receptor without atropisomers” (Bioorg Med Chem Lett, 2005).

Molecular target: T1, Gonadotropin-releasing hormone receptor (Homo sapiens, UniProt P30968)
T1 sequence (P30968 whole entry): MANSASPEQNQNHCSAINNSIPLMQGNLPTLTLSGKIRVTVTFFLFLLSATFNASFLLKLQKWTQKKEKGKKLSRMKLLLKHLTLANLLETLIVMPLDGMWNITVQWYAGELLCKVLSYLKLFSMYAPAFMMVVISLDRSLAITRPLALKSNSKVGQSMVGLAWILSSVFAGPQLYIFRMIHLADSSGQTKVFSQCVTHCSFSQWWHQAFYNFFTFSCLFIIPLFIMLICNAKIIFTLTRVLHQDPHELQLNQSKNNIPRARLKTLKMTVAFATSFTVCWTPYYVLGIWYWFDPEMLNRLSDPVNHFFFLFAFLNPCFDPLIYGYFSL
Test: Binding affinity towards human gonadotropin-releasing hormone receptor (GNRHR) using GnRH peptide as radioligand

Structure (SMILES)	Ki [nM]
N[C@@H](Cn1c(=O)c(-c2ccc(C(F)(F)F)cc2Cl)cn(Cc2c(F)cccc2C(F)(F)F)c1=O)c1ccccc1	200
COc1cccc(-c2cn(Cc3c(F)cccc3S(=O)(=O)C(C)C)c(=O)n(C[C@H](N)c3ccccc3)c2=O)c1F	30
COc1cccc(-c2cn(Cc3c(F)cccc3S(=O)(=O)N3CCOCC3)c(=O)n(C[C@H](N)c3ccccc3)c2=O)c1F	1400
COc1cccc(-c2cn(Cc3c(F)cccc3Cl)c(=O)n(C[C@H](N)c3ccccc3)c2=O)c1F	1.4
COc1cccc(-c2cn(Cc3c(F)cccc3F)c(=O)n(C[C@H](N)c3ccccc3)c2=O)c1Cl	1
COc1cccc(-c2cn(Cc3c(F)cccc3C(F)(F)F)c(=O)n(C[C@H](N)c3ccccc3)c2=O)c1Cl	0.45
COc1cccc(-c2cn(Cc3c(F)cccc3S(=O)(=O)CCO)c(=O)n(C[C@H](N)c3ccccc3)c2=O)c1F	9.1
COc1cccc(-c2cn(Cc3c(F)cccc3SC)c(=O)n(C[C@H](N)c3ccccc3)c2=O)c1F	19
CS(=O)(=O)c1cccc(C(F)(F)F)c1Cn1cc(-c2ccccc2Cl)c(=O)n(C[C@H](N)c2ccccc2)c1=O	3100

The remaining compounds from weak to strong by Ki, led by results:

Ki [nM]	Structure (SMILES)
660	N[C@@H](Cn1c(=O)c(-c2cccc(O)c2F)cn(Cc2c(F)cccc2F)c1=O)c1ccccc1
120	COc1cccc(-c2cn(Cc3c(F)cccc3S(=O)(=O)N(C)C)c(=O)n(C[C@H](N)c3ccccc3)c2=O)c1F
18	N[C@@H](Cn1c(=O)c(-c2cccc(O)c2F)cn(Cc2c(F)cccc2C(F)(F)F)c1=O)c1ccccc1
8.2	N[C@@H](Cn1c(=O)c(-c2cccc(OCC(F)(F)F)c2F)cn(Cc2c(F)cccc2C(F)(F)F)c1=O)c1ccccc1
8	N[C@@H](Cn1c(=O)c(-c2ccccc2F)cn(Cc2c(F)cccc2C(F)(F)F)c1=O)c1ccccc1
6.3	CC(C)Oc1cccc(-c2cn(Cc3c(F)cccc3C(F)(F)F)c(=O)n(C[C@H](N)c3ccccc3)c2=O)c1F
4	N[C@@H](Cn1c(=O)c(-c2ccccc2C(F)(F)F)cn(Cc2c(F)cccc2C(F)(F)F)c1=O)c1ccccc1
2.6	Cc1ccc(-c2cn(Cc3c(F)cccc3C(F)(F)F)c(=O)n(C[C@H](N)c3ccccc3)c2=O)c(Cl)c1
1.8	CCOc1cccc(-c2cn(Cc3c(F)cccc3C(F)(F)F)c(=O)n(C[C@H](N)c3ccccc3)c2=O)c1F
